Measurements from patent US20130337579A1, “Methods for Determining Protein Ligand Binding” (UNIVERSITY OF MARYLAND, COLLEGE PARK, priority 2010, published 2013).

Legend:
E. coli CRP = target: T1, E. coli CRP (Escherichia coli, UniProt P0ACJ8); assay: DRaCALA binding of radiolabeled nucleotides to purified CRP; settings: 20 μM purified protein; 500 nM 14C-cAMP, 4 nM 32P-ATP or 4 nM 32P-cdiGMP
T1 construct: His; made in house
Description: (§1) Radiolabeled ligands were incubated with each of the proteins and the mixtures were spotted on nitrocellulose. After spreading by capillary action, membranes were dried and quantitated by phosphorimager. […] The specificity of Alg44PilZ binding to cdiGMP was further tested by competition with excess unlabeled nucleotides (400-fold molar excess relative to the Alg44PilZ protein).
Protein or whole cell lysates in 1× cdiGMP binding buffer (20 μl) was mixed with 4 nM of radiolabeled nucleotide and allowed to incubate for 10 minutes at room temperature. Radiolabeled nucleotide was competed away by cold nucleotides in concentrations and for times indicated. Purified proteins were tested in technical replicates. Whole cell lysates in FIG. 4 and FIG. 12 were tested in biological triplicates. Whole cell lysates in FIG. 5 were tested in technical replicates. These mixtures were pipetted (2.5-5 μl) onto dry, untreated nitrocellulose (GE Healthcare) in triplicate and allowed to dry completely before quantification. An FLA7100 Fujifilm Life Science Phosphorimager was used to detect luminescence following a 5-minute exposure of blotted nitrocellulose to phosphorimager film. Data was quantified using Fujifilm Multi Gauge software v3.0.

[1] = target: T2, Alg44PilZ expressed in E. coli BL21(DE3) (Pseudomonas aeruginosa, UniProt Q9HY69); assay: DRaCALA of whole cell lysates of E. coli BL21(DE3) expressing Alg44PilZ; assay type: binding, P. aeruginosa
T2 construct: E. coli BL21(DE3) expressing Alg44PilZ and variants; expressed in transfected cells; host or cells: E. coli BL21(DE3), whole cell lysate
Text: A major limitation of most biochemical assays is the requirement for purified protein. We asked whether DRaCALA could be applied to crude extracts to overcome this limitation. Alg44PilZ binding to cdiGMP requires a number of conserved residues, including R17, R21, D44 and S46, in the PilZ domain of the protein. E. coli BL21(DE3) expressing Alg44PilZ and variants with R21A, D44A, S46A, and R17A/R21A substitutions were lysed and tested for binding to cdiGMP using DRaCALA. […] Only the whole cell lysates from E. coli expressing wild-type Alg44PilZ sequestered ^32P-cdiGMP (FIG. 4A). […] A significant difference between the bound fractions for cdiGMP or GTP competition experiments was detected for the wild-type Alg44PilZ, but not for the PilZ domain mutants (FIGS. 4A and 4B). […]
Protein or whole cell lysates in 1× cdiGMP binding buffer (20 μl) was mixed with 4 nM of radiolabeled nucleotide and allowed to incubate for 10 minutes at room temperature. […] These mixtures were pipetted (2.5-5 μl) onto dry, untreated nitrocellulose (GE Healthcare) in triplicate and allowed to dry completely before quantification. An FLA7100 Fujifilm Life Science Phosphorimager was used to detect luminescence following a 5-minute exposure of blotted nitrocellulose to phosphorimager film. Data was quantified using Fujifilm Multi Gauge software v3.0. […]

[2] = target: T3, P. aeruginosa Alg44PilZ (His-MBP-Alg44PilZ) (Pseudomonas aeruginosa, UniProt Q9HY69); assay: biochemical; assay type: binding
T3 construct: His-MBP-Alg44PilZ was varied from 100 μM to 6 nM; made in house; host or cells: E. coli BL21(DE3)
Text: DRaCALA exploits the ability of nitrocellulose membranes to preferentially sequester proteins over small molecule ligands. When a mixture of protein and radiolabeled ligand is spotted onto a dry nitrocellulose membrane, protein and bound ligand are immobilized at the site of contact while free ligand is mobilized by capillary action with the liquid phase (FIG. 1A). DRaCALA is a rapid assay, as the capillary action can be completed in less than 5 seconds. […] Because capillary action distributes the unbound ligand throughout the mobile phase, the calculation for the fraction bound (FB) can be corrected for this background (see below for edge effects at the solvent front and annulation of the protein). Therefore, FB is defined by the equation in FIG. 1B, where Iinner is the intensity of signal in the area with protein (inner circle) and Itotal is the total signal of the entire sample (outer circle). The Iinner signal consists of both ligand bound to protein and unbound ligand that has not mobilized beyond the area of the inner circle, which we define as Ibackground. Ibackground can be calculated by subtracting the signal intensity of the Iinner from the total ligand Itotal and adjusting for the relative areas of the inner (Ainner) and outer circles (Atotal) (FIG. 1B).
as §1
Kd can be measured by altering either the protein or ligand concentrations in titration experiments; since DRaCALA detects only the ligand mobility, ligand concentrations can be always held constant. […] Since the assay is completed in less than 5 seconds, DRaCALA can also be used to determine the koff for those protein-ligand complexes with slower off rates. koff was determined for cdiGMP and Alg44PilZ by spotting at the indicated time points after the addition of 1 mM unlabeled cdiGMP to a pre-incubated mixture of Alg44PilZ and ^32P-cdiGMP (FIG. 3C). […] Both edge and annulation effects are explained in FIG. 8. The edge effect is due to evaporation of the solvent during the time of the experiment, and is dependent on the humidity of the local environment around the nitrocellulose support. The evaporation results in a smaller total area (Atotal observed in FIG. 8A) and leads to an increased value in the calculated Ibackground. As a secondary correction for the edge effect, the fraction bound determined for spotted ligand in the absence of protein can be subtracted from all samples in parallel (FIG. 8B).

T3 sequence (Q9HY69 16-116): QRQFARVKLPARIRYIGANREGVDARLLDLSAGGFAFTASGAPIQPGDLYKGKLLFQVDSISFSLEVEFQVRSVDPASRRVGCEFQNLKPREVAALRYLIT
T2 sequence (Q9HY69 16-116): as above
T1 sequence (P0ACJ8 whole entry): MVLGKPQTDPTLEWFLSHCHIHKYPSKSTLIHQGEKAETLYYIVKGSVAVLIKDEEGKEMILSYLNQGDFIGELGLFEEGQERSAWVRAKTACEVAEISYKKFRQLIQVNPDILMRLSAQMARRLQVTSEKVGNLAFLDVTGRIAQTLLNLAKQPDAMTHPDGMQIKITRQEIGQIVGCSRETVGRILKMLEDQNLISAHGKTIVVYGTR

## Nc1nc2c(ncn2[C@@H]2O[C@@H]3CO[P@](=O)(O)O[C@H]4[C@@H](O)[C@H](n5cnc6c(=O)[nH]c(N)nc65)O[C@@H]4CO[P@](=O)(O)O[C@H]3[C@H]2O)c(=O)[nH]1 [cdiGMP, cyclic-di-GMP]
E. coli CRP
  binding to CRP (sequestration of radiolabel signal): did not bind
[1]; Alg44PilZ with or without MBP tag, BL21 whole cell extracts
  specific sequestration by whole cell extracts with soluble or insoluble protein: specifically sequester
[1]; E. coli BL21(DE3) expressing wild-type Alg44PilZ
  sequestration of 32P-cdiGMP by whole cell lysate: sequestered
[2]
  Kd: 1600 nM
  koff: 0.017 ± 0.002 s⁻¹
[2]; 20 μM purified protein, 500 nM 14C-cAMP, 4 nM 32P-ATP or 4 nM 32P-cdiGMP
  binding to Alg44PilZ (sequestration of radiolabel signal): bound
[2]; 1 mM unlabeled cdiGMP
  time until 32P-cdiGMP binding completely competed away: ≤ 90 s
[2]; corresponding to koff, DRaCALA
  half-life (t1/2): 35.6 ± 10.7 s
